Positions of bridges follow the written chain, without caps; N, C: chain ends. Non-standard residues stand in square brackets, D forms with d. Residues, ends and D or L forms follow the SMILES beside them. pGlu = O=C1CC[C@@H](C(=O)O)N1

Here are results for eleven compounds from publication PMC13366377 (Acta Pharmaceutica Sinica. B, 2025).

One data set can be described thus: in vitro. The settings on record: human, serum.
The next data set has as its target hα7 nAChR (Homo sapiens, UniProt P36544). Put plainly: cell-based.
Another data set deals with α7^EM nAChR (Homo sapiens, UniProt P36544). Put plainly: cell-based. In kind it is cell-based.
In a further data set the target is α7^EM nAChR S56A (Homo sapiens, UniProt P36544, S56A, form not given). In kind it is cell-based. The settings on record: read-out: IC50 at α7^EM nAChR mutant S56A.
For a further data set, the target named is α7^EM nAChR Q139E (Homo sapiens, UniProt P36544, Q139E, form not given). In kind it is cell-based. The settings on record: read-out: IC50 at α7^EM nAChR mutant Q139E.
The target in the next data set is α7^EM nAChR R208A (Homo sapiens, UniProt P36544, R208A, form not given). In kind it is cell-based. The settings on record: read-out: IC50 at α7^EM nAChR mutant R208A.
The target of another data set is α7^EM nAChR E184Q (Homo sapiens, UniProt P36544, E184Q, form not given). In kind it is cell-based. The note with it: read-out: IC50 at α7^EM nAChR mutant E184Q.
Chain of α7^EM nAChR E184Q (P36544 23-502 E184Q, form open): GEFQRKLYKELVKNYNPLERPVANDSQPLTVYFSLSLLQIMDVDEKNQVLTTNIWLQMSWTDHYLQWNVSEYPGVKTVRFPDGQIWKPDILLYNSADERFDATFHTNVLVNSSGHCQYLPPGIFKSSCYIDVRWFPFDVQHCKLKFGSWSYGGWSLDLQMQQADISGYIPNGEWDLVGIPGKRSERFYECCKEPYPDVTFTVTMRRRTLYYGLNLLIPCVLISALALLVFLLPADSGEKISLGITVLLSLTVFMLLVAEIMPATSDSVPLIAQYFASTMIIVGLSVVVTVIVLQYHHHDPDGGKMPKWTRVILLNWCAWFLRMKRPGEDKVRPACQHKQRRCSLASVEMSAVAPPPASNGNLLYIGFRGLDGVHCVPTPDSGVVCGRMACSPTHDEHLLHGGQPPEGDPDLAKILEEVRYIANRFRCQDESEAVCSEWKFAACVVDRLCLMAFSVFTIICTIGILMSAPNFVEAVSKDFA

Chain of α7^EM nAChR (P36544 23-233 limits assumed): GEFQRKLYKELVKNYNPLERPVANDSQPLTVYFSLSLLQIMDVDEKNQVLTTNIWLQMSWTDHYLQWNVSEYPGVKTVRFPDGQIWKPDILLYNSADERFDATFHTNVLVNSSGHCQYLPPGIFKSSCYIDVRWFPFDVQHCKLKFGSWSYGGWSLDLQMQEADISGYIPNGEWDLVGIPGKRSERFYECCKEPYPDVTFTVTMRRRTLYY
Chain of hα7 nAChR (P36544 23-502): as the sequence (P36544 23-502 E184Q, form open) above, with Q162E counted along it
Chain of α7^EM nAChR R208A (P36544 23-502 R208A, form open): as the sequence (P36544 23-502 E184Q, form open) above, with Q162E, R186A counted along it
Chain of α7^EM nAChR Q139E (P36544 23-502 Q139E, form open): as the sequence (P36544 23-502 E184Q, form open) above, with Q117E, Q162E counted along it
Chain of α7^EM nAChR S56A (P36544 23-502 S56A, form open): as the sequence (P36544 23-502 E184Q, form open) above, with S34A, Q162E counted along it

Broadly, the fraction remaining is the share of the starting amount still present when the sample was taken. In general, IC50 refers to the concentration that gives 50% inhibition. As to `N=C(N)NCCC[C@@H]1NC(=O)[C@@H](NC(=O)CN)CSSC[C@@H](C(N)=O)NC(=O)[C@H](Cc2c[nH]c3ccccc23)NC(=O)[C@H](CCCNC(=N)N)NC(=O)[C@H](CCCNC(=N)N)NC(=O)[C@H](Cc2c[nH]c3ccccc23)NC(=O)[C@H](Cc2c[nH]c3ccccc23)NC1=O` [[ΔQP, S8R]SS1] (H-GCRWWRRWC-NH2; disulfide 2-9), the fraction remaining at 24 h in the data set “in vitro” was determined as 14%. On hα7 nAChR, 49.2 nM corresponded to half-maximal inhibition (IC50) and the “increase in potency compared to SS1” value was ~29 fold.
Turning to `N=C(N)NCCC[C@@H]1NC(=O)[C@@H](NC(=O)CNC(=O)[C@@H]2CCCN2C(=O)[C@@H](N)CCC(N)=O)CSSC[C@@H](C(N)=O)NC(=O)[C@H](Cc2c[nH]c3ccccc23)NC(=O)[C@H](CCCNC(=N)N)NC(=O)[C@H](CCCNC(=N)N)NC(=O)[C@H](Cc2c[nH]c3ccccc23)NC(=O)[C@H](CCCNC(=N)N)NC1=O` [[W6R, S8R]SS1] (H-QPGCRRWRRWC-NH2; disulfide 4-11), at hα7 nAChR (n = 8-10), the “potency of [S8R]SS1 analogues at hα7 nAChR relative to [S8R]SS1 (in words)” value is reported as “maintained potency”.
As to `N=C(N)NCCC[C@@H]1NC(=O)[C@@H](NC(=O)CNC(=O)[C@@H]2CCCN2C(=O)[C@@H]2CCC(=O)N2)CSSC[C@@H](C(N)=O)NC(=O)[C@H](Cc2c[nH]c3ccccc23)NC(=O)[C@H](CCCNC(=N)N)NC(=O)[C@H](CCCNC(=N)N)NC(=O)[C@H](Cc2c[nH]c3ccccc23)NC(=O)[C@H](Cc2c[nH]c3ccccc23)NC1=O` [[Q1Pyr, S8R]SS1] ([pGlu]PGCRWWRRWC-NH2; disulfide 4-11), half-maximal inhibition at α7^EM nAChR (IC50) was put at 1390 ± 260 nM.
As for `N=C(N)NCCC[C@@H]1NC(=O)[C@@H](NC(=O)CNC(=O)[C@@H]2CCCN2C(=O)[C@@H](N)CCCNC(=N)N)CSSC[C@@H](C(N)=O)NC(=O)[C@H](Cc2c[nH]c3ccccc23)NC(=O)[C@H](CCCNC(=N)N)NC(=O)[C@H](CO)NC(=O)[C@H](Cc2c[nH]c3ccccc23)NC(=O)[C@H](Cc2c[nH]c3ccccc23)NC1=O` [[Q1R]SS1] (H-RPGCRWWSRWC-NH2; disulfide 4-11), the “potency at hα7 nAChR relative to parent peptide (in words)” value on hα7 nAChR is given as “no significant differences”.
Same read-out and setting: with `N=C(N)NCCC[C@@H]1NC(=O)[C@@H](NC(=O)CNC(=O)[C@@H]2CCCN2C(=O)[C@@H](N)CCC(N)=O)CSSC[C@@H](C(N)=O)NC(=O)[C@H](Cc2c[nH]c3ccccc23)NC(=O)[C@H](CCCNC(=N)N)NC(=O)[C@H](CO)NC(=O)[C@H](CCCNC(=N)N)NC(=O)[C@H](Cc2c[nH]c3ccccc23)NC1=O` [[W7R]SS1] (H-QPGCRWRSRWC-NH2; disulfide 4-11) the entry was “no significant differences”.
As for `N=C(N)NCCC[C@@H]1NC(=O)[C@@H](NC(=O)CNC(=O)[C@@H]2CCCN2C(=O)[C@@H](N)CCCNC(=N)N)CSSC[C@@H](C(N)=O)NC(=O)[C@H](Cc2c[nH]c3ccccc23)NC(=O)[C@H](CCCNC(=N)N)NC(=O)[C@H](CCCNC(=N)N)NC(=O)[C@H](Cc2c[nH]c3ccccc23)NC(=O)[C@H](Cc2c[nH]c3ccccc23)NC1=O` [[Q1R, S8R]SS1] (H-RPGCRWWRRWC-NH2; disulfide 4-11), at α7^EM nAChR, half-maximal inhibition (IC50) required 136 ± 27.8 nM and the “increase in potency versus [S8R]SS1 at α7^EM nAChR” value was 4.8 fold.
For `N=C(N)NCCC[C@@H]1NC(=O)[C@@H](NC(=O)CNC(=O)[C@@H]2CCCN2C(=O)[C@@H](N)CCC(=O)O)CSSC[C@@H](C(N)=O)NC(=O)[C@H](Cc2c[nH]c3ccccc23)NC(=O)[C@H](CCCNC(=N)N)NC(=O)[C@H](CCCNC(=N)N)NC(=O)[C@H](Cc2c[nH]c3ccccc23)NC(=O)[C@H](Cc2c[nH]c3ccccc23)NC1=O` [[Q1E, S8R]SS1] (H-EPGCRWWRRWC-NH2; disulfide 4-11), in that order: 364 ± 103 nM and 1.8 fold.
Regarding `N=C(N)NCCC[C@@H]1NC(=O)[C@H](CO)NC(=O)[C@H](Cc2c[nH]c3ccccc23)NC(=O)[C@H](Cc2c[nH]c3ccccc23)NC(=O)[C@H](CCCNC(=N)N)NC(=O)[C@@H](NC(=O)[C@H](CCCNC(=N)N)NC(=O)[C@@H]2CCCN2C(=O)[C@@H](N)CCC(N)=O)CSSC[C@@H](C(N)=O)NC(=O)[C@H](Cc2c[nH]c3ccccc23)NC1=O` [[G3R]SS1] (H-QPRCRWWSRWC-NH2; disulfide 4-11), the “potency at hα7 nAChR relative to parent peptide (in words)” value at hα7 nAChR was “no significant differences”.
For the compound `N=C(N)NCCC[C@@H]1NC(=O)[C@@H](NC(=O)CNC(=O)[C@@H]2CCCN2C(=O)[C@@H](N)CCC(N)=O)CSSC[C@@H](C(N)=O)NC(=O)[C@H](Cc2c[nH]c3ccccc23)NC(=O)[C@H](CCCNC(=N)N)NC(=O)[C@H](CCCNC(=N)N)NC(=O)[C@H](Cc2c[nH]c3ccccc23)NC(=O)[C@H](Cc2c[nH]c3ccccc23)NC1=O` [[S8R]SS1] (H-QPGCRWWRRWC-NH2; disulfide 4-11), the IC50 was 234 ± 36.1 nM on α7^EM nAChR S56A; 852 ± 66.3 nM on α7^EM nAChR Q139E; 659 ± 92.9 nM against α7^EM nAChR; 1930 ± 196 nM at α7^EM nAChR R208A; 555 ± 99.9 nM at α7^EM nAChR E184Q.
`N=C(N)NCCC[C@@H]1NC(=O)[C@@H](NC(=O)CNC(=O)[C@H](CCCNC(=N)N)NC(=O)[C@@H](N)CCC(N)=O)CSSC[C@@H](C(N)=O)NC(=O)[C@H](Cc2c[nH]c3ccccc23)NC(=O)[C@H](CCCNC(=N)N)NC(=O)[C@H](CO)NC(=O)[C@H](Cc2c[nH]c3ccccc23)NC(=O)[C@H](Cc2c[nH]c3ccccc23)NC1=O` [[P2R]SS1] (H-QRGCRWWSRWC-NH2; disulfide 4-11): at hα7 nAChR, the “potency at hα7 nAChR relative to parent peptide (in words)” value is given as “no significant differences”.
The same measure, in the same setting: the entry for `N=C(N)NCCC[C@@H]1NC(=O)[C@@H](NC(=O)CNC(=O)[C@@H]2CCCN2C(=O)[C@@H](N)CCC(N)=O)CSSC[C@@H](C(N)=O)NC(=O)[C@H](Cc2c[nH]c3ccccc23)NC(=O)[C@H](CCCNC(=N)N)NC(=O)[C@H](CO)NC(=O)[C@H](Cc2c[nH]c3ccccc23)NC(=O)[C@H](CCCNC(=N)N)NC1=O` [[W6R]SS1] (H-QPGCRRWSRWC-NH2; disulfide 4-11) is “completely lost potency”.
